# Assay results from ChEMBL document CHEMBL2380228, “Nucleotide competing reverse transcriptase inhibitors: discovery of a series of non-basic benzofurano[3,2-d]pyrimidin-2-one derived inhibitors” (Bioorg Med Chem Lett, 2013).
# Legend:
# [1] = Inhibition of HIV-1 BH10 reverse transcriptase using poly(rA)/oligo(dT)15 as substrate after 60 mins by plate reader analysis; parameters: species or system Human immunodeficiency virus type 1 BH10
# [2] = Permeability from apical to basolateral side of human Caco2 cells; format: ADME, cell-based; conditions: Caco-2, read-out: permeability
# [3] = Clearance in human liver microsomes at 1 uM by LC-MS/MS analysis relative to hepatic blood flow; format: ADME, Microsome; conditions: read-out: CLH
# [4] = Cytotoxicity against human C8166-LTR-Luc cells after 3 days by MTT assay; format: cell-based
# [5] = test system: Human immunodeficiency virus 1; experiment: Antiviral activity against wild type HIV1-infected human C8166 cells after 1.5 hrs by luciferase reporter gene assay; format: functional, organism-based; conditions: Human immunodeficiency virus 1, C8166, 1.5 h
# [6] = Solubility of the compound in phosphate buffer at pH 6.8 after 24 hrs at 25 degC by LC-MS analysis; format: physicochemical
# [7] = Solubility of the compound in phosphate buffer at pH 2.0 after 24 hrs at 25 degC by LC-MS analysis; format: physicochemical
# [8] = Lipophilicity, log D of the compound in n-octanol buffer at 0.5 mg after 2 to 24 hrs by LC-MS analysis; format: physicochemical
# [9] = Cytotoxicity against human C8166-LTR-Luc cells assessed as inhibition of cell viability at > 3.6 uM after 3 days by MTT assay; format: cell-based; conditions: read-out: INH
# [10] = test system: Human immunodeficiency virus type 1 BH10; experiment: Inhibition of HIV-1 BH10 reverse transcriptase using poly(rA)/oligo(dT)15 as substrate at > 1100 nM after 60 mins by plate reader analysis
# [11] = test system: Human immunodeficiency virus type 1 BH10; experiment: Inhibition of HIV-1 BH10 reverse transcriptase using poly(rA)/oligo(dT)15 as substrate at > 365 nM after 60 mins by plate reader analysis
# [12] = test system: Human immunodeficiency virus type 1 BH10; experiment: Inhibition of HIV-1 BH10 reverse transcriptase using poly(rA)/oligo(dT)15 as substrate at > 685 nM after 60 mins by plate reader analysis
# [13] = test system: Human immunodeficiency virus type 1 BH10; experiment: Inhibition of HIV-1 BH10 reverse transcriptase using poly(rA)/oligo(dT)15 as substrate at > 4700 nM after 60 mins by plate reader analysis
# [14] = Clearance in rat liver microsomes at 1 uM by LC-MS/MS analysis relative to hepatic blood flow; format: ADME, Microsome; conditions: read-out: CLH
IC50 [1],Papp A→B [2],hepatic extraction ratio at 1 µM [3],EC50 [5],SMILES,CC50 at 72 h [4],also measured
10 nM,8 ×10⁻⁶ cm/s,0.61,130 nM,COCCCn1c(=O)nc(-c2ccc(N3CCN(CCOC)CC3)cc2)c2oc3ccc(Cl)cc3c21,> 4200 nM,
3 nM,2.6 ×10⁻⁶ cm/s,0.59,37 nM,COCCCn1c(=O)nc(-c2ccc(N3CCN(C(C)C)CC3)nc2)c2oc3ccc(Cl)cc3c21,> 3200 nM,
13 nM,8.9 ×10⁻⁶ cm/s,0.52,290 nM,COCCCn1c(=O)nc(-c2ccc(N3CCN(C4CC4)CC3)cc2)c2oc3ccc(Cl)cc3c21,> 3600 nM,cytotoxicity at 72 h [9]: 20%
195 nM,,,,COC[C@H](C)Cn1c(=O)nc(-c2ccccc2)c2oc3ccc(-c4ccc(CN(C)C)cc4)cc3c21,,
2 nM,9.8 ×10⁻⁶ cm/s,0.81,18 nM,CCCCCn1c(=O)nc(-c2ccc(NC)nc2)c2oc3ccc(-c4cnn(C)c4)cc3c21,4000 nM,solubility at 24 h [6]: 0.27 µg/mL; solubility at 24 h [7]: > 1000 µg/mL; logD [8]: 4.7
4 nM,1.6 ×10⁻⁶ cm/s,0.5,148 nM,CNc1ccc(-c2nc(=O)n(CCCOC)c3c2oc2ccc(-c4cnn(C)c4)cc23)cn1,> 17000 nM,solubility at 24 h [6]: > 1000 µg/mL; solubility at 24 h [7]: > 1000 µg/mL
55 nM,,,,CC(C)CCCn1c(=O)nc(-c2ccccc2)c2oc3ccc(-c4ccc(CN(C)C)cc4)cc3c21,,
> 365 nM,,,,CN(C)Cc1ccc(-c2ccc3oc4c(-c5ccccc5)nc(=O)n(CCCc5ccccc5)c4c3c2)cc1,,inhibition [11]: 25%
> 685 nM,,,,CCCn1c(=O)nc(-c2ccccc2)c2oc3ccc(-c4ccc(CN(C)C)cc4)cc3c21,,inhibition [12]: 45%
2330 nM,,,,COCCn1c(=O)nc(-c2ccccc2)c2oc3ccc(-c4ccc(CN(C)C)cc4)cc3c21,,

# Second part, the compound before the results:
SMILES,IC50 [1],Papp A→B [2],hepatic extraction ratio at 1 µM [3],EC50 [5],CC50 at 72 h [4],also measured
COCCCn1c(=O)nc(-c2ccccc2)c2oc3ccc(-c4ccc(CN(C)C)cc4)cc3c21,39 nM,,,,,
CCn1c(=O)nc(-c2ccccc2)c2oc3ccc(-c4ccc(CN(C)C)cc4)cc3c21,890 nM,,,,,
CN(C)Cc1ccc(-c2ccc3oc4c(-c5ccccc5)nc(=O)n(-c5ccc([N+](=O)[O-])cc5)c4c3c2)cc1,1.7 nM,,,,,
COCCCCn1c(=O)nc(-c2ccccc2)c2oc3ccc(-c4ccc(CN(C)C)cc4)cc3c21,86 nM,,,,,
COCCCn1c(=O)nc(-c2ccc(N3CCN(C)CC3)nc2)c2oc3ccc(-c4cnn(C)c4)cc3c21,3 nM,0.4 ×10⁻⁶ cm/s,0.67,6 nM,> 21700 nM,solubility at 24 h [6]: > 1000 µg/mL; solubility at 24 h [7]: > 1000 µg/mL; logD [8]: 3
CCOC(=O)CCCn1c(=O)nc(-c2ccccc2)c2oc3ccc(-c4ccc(CN(C)C)cc4)cc3c21,> 1100 nM,,,,,inhibition [10]: 14%
CNc1ccc(-c2nc(=O)n(CC[C@H]3CCCO3)c3c2oc2ncc(-c4cnn(C)c4)cc23)cn1,,,,,,solubility at 24 h [6]: 1.2 µg/mL; solubility at 24 h [7]: > 871 µg/mL
CC(C)Cn1c(=O)nc(-c2ccccc2)c2oc3ccc(-c4ccc(CN(C)C)cc4)cc3c21,655 nM,,,,,
CC(C)CCn1c(=O)nc(-c2ccccc2)c2oc3ccc(-c4ccc(CN(C)C)cc4)cc3c21,190 nM,,,,,
CN(C)Cc1ccc(-c2ccc3oc4c(-c5ccccc5)nc(=O)n(C)c4c3c2)cc1,645 nM,,,,,
COC[C@@H](C)Cn1c(=O)nc(-c2ccccc2)c2oc3ccc(-c4ccc(CN(C)C)cc4)cc3c21,635 nM,,,,,
CC(C)n1c(=O)nc(-c2ccccc2)c2oc3ccc(-c4ccc(CN(C)C)cc4)cc3c21,800 nM,,,,,
Cc1ccc(-n2c(=O)nc(-c3ccccc3)c3oc4ccc(-c5ccc(CN(C)C)cc5)cc4c32)cc1C#N,7.3 nM,,,,,
COCCCn1c(=O)nc(-c2ccc(N3CCN(CCOC)CC3)nc2)c2oc3ccc(Cl)cc3c21,8 nM,12 ×10⁻⁶ cm/s,0.78,56 nM,,
CN(C)Cc1ccc(-c2ccc3oc4c(-c5ccccc5)nc(=O)n(-c5ccccc5)c4c3c2)cc1,245 nM,,,,,
CCCCCn1c(=O)nc(-c2ccccc2)c2oc3ccc(-c4ccc(CN(C)C)cc4)cc3c21,27 nM,,,,,
CCNCC(=O)Nc1ccc(-c2nc(=O)n(CCCOC)c3c2oc2ccc(Cl)cc23)cc1,2.8 nM,< 0.1 ×10⁻⁶ cm/s,0.46,33 nM,> 8600 nM,
CNc1ccc(-c2nc(=O)n(CCC3CCCO3)c3c2oc2ccc(-c4cnn(C)c4)cc23)cn1 (racemic),1.5 nM,3.1 ×10⁻⁶ cm/s,0.61,13 nM,3800 nM,solubility at 24 h [6]: > 984 µg/mL; solubility at 24 h [7]: > 1000 µg/mL; logD [8]: 3.4
CCCCn1c(=O)nc(-c2ccccc2)c2oc3ccc(-c4ccc(CN(C)C)cc4)cc3c21,42 nM,,,,,
CN(C)Cc1ccc(-c2ccc3oc4c(-c5ccccc5)nc(=O)n(CCCC(=O)O)c4c3c2)cc1,> 4700 nM,,,,,inhibition [13]: 46%
CNc1ccc(-c2nc(=O)n(CC[C@@H]3CCCO3)c3c2oc2ncc(-c4cnn(C)c4)cc23)cn1,,,,,,solubility at 24 h [6]: > 928 µg/mL; solubility at 24 h [7]: > 844 µg/mL
COCCCn1c(=O)nc(-c2ccc(N3CCNCC3)cc2)c2oc3ccc(Cl)cc3c21,1.7 nM,0.3 ×10⁻⁶ cm/s,0.28,25 nM,2700 nM,
COCCCn1c(=O)nc(-c2ccc(N3CCN(C(C)C)CC3)cc2)c2oc3ccc(Cl)cc3c21,9.1 nM,2.7 ×10⁻⁶ cm/s,0.51,35 nM,2300 nM,
CCNCC(=O)Nc1ccc(-c2nc(=O)n(CCOC)c3c2oc2ccc(-c4ccc5c(c4)CCN(C)C5)cc23)cc1,4 nM,< 0.1 ×10⁻⁶ cm/s,0.29,30 nM,4100 nM,hepatic extraction ratio at 1 µM [14]: 0.11
